From patent US7026304B2, “2-alkylated-cyclodextrin derivatives: reversal agents for drug-induced neuromuscular block” (Akzo Nobel N.V., priority 2001, dated 2006)
Like-named read-outs stand apart in the source and are kept apart here.

Key:
[1] = tested on: steady-state neuromuscular block induced by the muscle relaxant rocuronium bromide (Roc); assay: Reversal of neuromuscular blockade in anaesthetized guinea pigs in vivo; parameters: species or system guinea pig
Description: Reversal of Neuromuscular Blockade in Anaesthetized Guinea Pigs in vivo Male Dunkin-Hartley guinea pigs (bodyweight: 600–900 g) were anaesthetized by i.p. administration of 10 mg/kg pentobarbitone and 1000 mg/kg urethane. After tracheotomy, the animals were artificially ventilated using a Harvard small animal ventilator. A catheter was placed into the carotid artery for continuous monitoring of arterial blood pressure and the taking of blood samples for blood gas analysis. Heart rate was derived from the blood pressure signal. The sciatic nerve was stimulated (rectangular pulses of 0.5 ms duration at 10 s (0.1 Hz) intervals at a supramaximal voltage, using a Grass S88 Stimulator) and the force of M. gastrocnemius contractions was measured using a Grass FT03 force-displacement transducer. Contractions, blood pressure and heart rate were recorded on a multichannel Grass 7D recorder. Catheters were placed in both jugular veins. One catheter was used for the continuous infusion of a neuromuscular blocking agent. […] The other catheter was used for administration of increasing doses of the reversal agent. During continuous infusion of the neuromuscular blocking agent, single doses of increasing concentration of reversal agent were given.

[2] = tested on: steady-state neuromuscular block induced by the muscle relaxant rocuronium bromide (Roc); conditions: anaesthetized guinea pigs, as already described in WO 01/12202, cited from earlier work
[3] = anaesthetized guinea pigs, rocuronium bromide-induced steady-state block
[4] = anaesthetized guinea pigs, rocuronium bromide-induced steady-state block, dose at which % max reversal was reached
[5] = anaesthetized male Dunkin-Hartley guinea pigs, rocuronium bromide infusion to steady-state block of 85–90%, reversal agent i.v. in increasing doses

Molecule	% max reversal [1, 3] [%]	concentration at maximum reversal [1, 4]	ED50, dose producing 50% reversal of steady-state neuromuscular block [1, 5] [µmol/kg]	also measured
O=C([O-])c1ccc(CO[C@H]2[C@H]3O[C@H]4[C@H](O)[C@@H](OCc5ccc(C(=O)[O-])cc5)[C@@H](O[C@H]5[C@H](O)[C@@H](OCc6ccc(C(=O)[O-])cc6)[C@@H](O[C@H]6[C@H](O)[C@@H](OCc7ccc(C(=O)[O-])cc7)[C@@H](O[C@H]7[C@H](O)[C@@H](OCc8ccc(C(=O)[O-])cc8)[C@@H](O[C@H]8[C@H](O)[C@@H](OCc9ccc(C(=O)[O-])cc9)[C@@H](O[C@H]9[C@H](O)[C@@H](OCc%10ccc(C(=O)[O-])cc%10)[C@@H](O[C@H]%10[C@H](O)[C@@H](OCc%11ccc(C(=O)[O-])cc%11)[C@@H](O[C@@H]([C@@H]2O)[C@@H](CO)O3)O[C@@H]%10CO)O[C@@H]9CO)O[C@@H]8CO)O[C@@H]7CO)O[C@@H]6CO)O[C@@H]5CO)O[C@@H]4CO)cc1.[Na+].[Na+].[Na+].[Na+].[Na+].[Na+].[Na+].[Na+] [Example 3, Octakis per-2-O-(4-carboxybenzyl)-γ-cyclodextrin, Na salt]	97	(0.8) μmol · kg^−1	0.20	
O=C([O-])c1ccccc1CO[C@H]1[C@H]2O[C@H]3[C@H](O)[C@@H](OCc4ccccc4C(=O)[O-])[C@@H](O[C@H]4[C@H](O)[C@@H](OCc5ccccc5C(=O)[O-])[C@@H](O[C@H]5[C@H](O)[C@@H](OCc6ccccc6C(=O)[O-])[C@@H](O[C@H]6[C@H](O)[C@@H](OCc7ccccc7C(=O)[O-])[C@@H](O[C@H]7[C@H](O)[C@@H](OCc8ccccc8C(=O)[O-])[C@@H](O[C@H]8[C@H](O)[C@@H](OCc9ccccc9C(=O)[O-])[C@@H](O[C@H]9[C@H](O)[C@@H](OCc%10ccccc%10C(=O)[O-])[C@@H](O[C@@H]([C@@H]1O)[C@@H](CO)O2)O[C@@H]9CO)O[C@@H]8CO)O[C@@H]7CO)O[C@@H]6CO)O[C@@H]5CO)O[C@@H]4CO)O[C@@H]3CO.[Na+].[Na+].[Na+].[Na+].[Na+].[Na+].[Na+].[Na+] [Example 4, Octakis per-2-O-(2-carboxybenzyl)-γ-cyclodextrin, Na salt]	84	(15) μmol · kg^−1	3.4	
O=C([O-])c1ccc(CO[C@H]2[C@H]3O[C@H]4[C@H](O)[C@@H](O)[C@@H](O[C@H]5[C@H](O)[C@@H](O)[C@@H](O[C@H]6[C@H](O)[C@@H](O)[C@@H](O[C@H]7[C@H](O)[C@@H](O)[C@@H](O[C@H]8[C@H](O)[C@@H](O)[C@@H](O[C@H]9[C@H](O)[C@@H](O)[C@@H](O[C@H]%10[C@H](O)[C@@H](O)[C@@H](O[C@@H]([C@@H]2O)[C@@H](CO)O3)O[C@@H]%10CO)O[C@@H]9CO)O[C@@H]8CO)O[C@@H]7CO)O[C@@H]6CO)O[C@@H]5CO)O[C@@H]4CO)cc1.[Na+] [Example 5, Mono-2-O-(4-carboxybenzyl)-γ-cyclodextrin sodium salt]	96	(2.6) μmol · kg^−1	0.25	
O=C([O-])CCSCCCO[C@H]1[C@H]2O[C@H]3[C@H](O)[C@@H](OCCCSCCC(=O)[O-])[C@@H](O[C@H]4[C@H](O)[C@@H](OCCCSCCC(=O)[O-])[C@@H](O[C@H]5[C@H](O)[C@@H](OCCCSCCC(=O)[O-])[C@@H](O[C@H]6[C@H](O)[C@@H](OCCCSCCC(=O)[O-])[C@@H](O[C@H]7[C@H](O)[C@@H](OCCCSCCC(=O)[O-])[C@@H](O[C@H]8[C@H](O)[C@@H](OCCCSCCC(=O)[O-])[C@@H](O[C@H]9[C@H](O)[C@@H](OCCCSCCC(=O)[O-])[C@@H](O[C@@H]([C@@H]1O)[C@@H](CO)O2)O[C@@H]9CO)O[C@@H]8CO)O[C@@H]7CO)O[C@@H]6CO)O[C@@H]5CO)O[C@@H]4CO)O[C@@H]3CO.[Na+].[Na+].[Na+].[Na+].[Na+].[Na+].[Na+].[Na+] [Example 6, Octakis per-2-O-(6-carboxy-4-thia-hexyl)-γ-cyclodextrin, Na salt]				% max reversal ([1]; guinea pig, in vivo): 86%; concentration at maximum reversal ([1]; guinea pig, in vivo): (16) μmol · kg^−1; ED50, dose producing 50% reversal of steady-state neuromuscular block ([1]; guinea pig, in vivo, iv): 3.4 µmol/kg
O=C([O-])CSCCCO[C@H]1[C@H]2O[C@H]3[C@H](O)[C@@H](OCCCSCC(=O)[O-])[C@@H](O[C@H]4[C@H](O)[C@@H](OCCCSCC(=O)[O-])[C@@H](O[C@H]5[C@H](O)[C@@H](OCCCSCC(=O)[O-])[C@@H](O[C@H]6[C@H](O)[C@@H](OCCCSCC(=O)[O-])[C@@H](O[C@H]7[C@H](O)[C@@H](OCCCSCC(=O)[O-])[C@@H](O[C@H]8[C@H](O)[C@@H](OCCCSCC(=O)[O-])[C@@H](O[C@H]9[C@H](O)[C@@H](OCCCSCC(=O)[O-])[C@@H](O[C@@H]([C@@H]1O)[C@@H](CO)O2)O[C@@H]9CO)O[C@@H]8CO)O[C@@H]7CO)O[C@@H]6CO)O[C@@H]5CO)O[C@@H]4CO)O[C@@H]3CO.[Na+].[Na+].[Na+].[Na+].[Na+].[Na+].[Na+].[Na+] [Example 7, Octakis per-2-O-(5-carboxy-4-thia-pentyl)-γ-cyclodextrin, Na salt]	91	(10) μmol · kg^−1	1.12	
O=S(=O)([O-])CCSCCCO[C@H]1[C@H]2O[C@H]3[C@H](O)[C@@H](OCCCSCCS(=O)(=O)[O-])[C@@H](O[C@H]4[C@H](O)[C@@H](OCCCSCCS(=O)(=O)[O-])[C@@H](O[C@H]5[C@H](O)[C@@H](OCCCSCCS(=O)(=O)[O-])[C@@H](O[C@H]6[C@H](O)[C@@H](OCCCSCCS(=O)(=O)[O-])[C@@H](O[C@H]7[C@H](O)[C@@H](OCCCSCCS(=O)(=O)[O-])[C@@H](O[C@H]8[C@H](O)[C@@H](OCCCSCCS(=O)(=O)[O-])[C@@H](O[C@H]9[C@H](O)[C@@H](OCCCSCCS(=O)(=O)[O-])[C@@H](O[C@@H]([C@@H]1O)[C@@H](CO)O2)O[C@@H]9CO)O[C@@H]8CO)O[C@@H]7CO)O[C@@H]6CO)O[C@@H]5CO)O[C@@H]4CO)O[C@@H]3CO.[Na+].[Na+].[Na+].[Na+].[Na+].[Na+].[Na+].[Na+] [Example 8, Octakis per-2-O-(6-sulfo-4-thia-hexyl)-γ-cyclodextrin, Na salt]	85	(4.5) μmol · kg^−1	1.4	
OCC(O)CSCCCO[C@H]1[C@H]2O[C@H]3[C@H](O)[C@@H](OCCCSCC(O)CO)[C@@H](O[C@H]4[C@H](O)[C@@H](OCCCSCC(O)CO)[C@@H](O[C@H]5[C@H](O)[C@@H](OCCCSCC(O)CO)[C@@H](O[C@H]6[C@H](O)[C@@H](OCCCSCC(O)CO)[C@@H](O[C@H]7[C@H](O)[C@@H](OCCCSCC(O)CO)[C@@H](O[C@H]8[C@H](O)[C@@H](OCCCSCC(O)CO)[C@@H](O[C@@H]([C@@H]1O)[C@@H](CO)O2)O[C@@H]8CO)O[C@@H]7CO)O[C@@H]6CO)O[C@@H]5CO)O[C@@H]4CO)O[C@@H]3CO (stereo partly drawn) [Example 9, Heptakis per-2-O-(6,7-dihydroxy-4-thia-heptyl)-β-cyclodextrin]	93	(6.4) μmol · kg^−1	1.10	
OCCOCCSCCCO[C@H]1[C@H]2O[C@H]3[C@H](O)[C@@H](OCCCSCCOCCO)[C@@H](O[C@H]4[C@H](O)[C@@H](OCCCSCCOCCO)[C@@H](O[C@H]5[C@H](O)[C@@H](OCCCSCCOCCO)[C@@H](O[C@H]6[C@H](O)[C@@H](OCCCSCCOCCO)[C@@H](O[C@H]7[C@H](O)[C@@H](OCCCSCCOCCO)[C@@H](O[C@H]8[C@H](O)[C@@H](OCCCSCCOCCO)[C@@H](O[C@@H]([C@@H]1O)[C@@H](CO)O2)O[C@@H]8CO)O[C@@H]7CO)O[C@@H]6CO)O[C@@H]5CO)O[C@@H]4CO)O[C@@H]3CO [Example 10, Heptakis per-2-O-(9-hydroxy-7-oxa-4-thia-nonyl)-β-cyclodextrin]	72	(12) μmol · kg^−1	5.6	
OC[C@H]1O[C@@H]2O[C@H]3[C@H](O)[C@@H](O)[C@@H](O[C@H]4[C@H](O)[C@@H](O)[C@@H](O[C@H]5[C@H](O)[C@@H](O)[C@@H](O[C@H]6[C@H](O)[C@@H](O)[C@@H](O[C@H]7[C@H](O)[C@@H](O)[C@@H](O[C@H]8[C@H](O)[C@@H](O)[C@@H](O[C@H]1[C@H](O)[C@H]2O)O[C@@H]8CO)O[C@@H]7CO)O[C@@H]6CO)O[C@@H]5CO)O[C@@H]4CO)O[C@@H]3CO [β-cyclodextrin]				ED50, dose producing 50% reversal of steady-state neuromuscular block ([2]; parent cyclodextrins for comparison): 20 µmol/kg; % max reversal ([2]; parent cyclodextrins): 93%; dose at maximum reversal ([2]; parent cyclodextrins): (113) μmol · kg^−1
Octakis per-2-O-(3-carboxybenzyl)-γ-cyclodextrin, Na salt [Example 2]	104	(4.8) μmol · kg^−1	0.38	
